Publication PMC12391994, “Synthesis of a fac-Tricarbonylrhenium(I) Complex with Pyrithione, Its Physicochemical Characterization, and Assessment of Biological Effects” (ACS Omega, 2025)

What was measured:
cathepsin L = target: T1, cathepsin L (Homo sapiens, UniProt P07711); assay: Relative inhibition of cathepsin L; type: biochemical; conditions: 50 μM; substrate Z-Phe-Arg-AMC; pH 5.5
T1 construct: made in house; host or cells: E. coli
Excerpt: (§1) Relative inhibition is expressed as a percentage of the decrease in reaction velocity in the presence of an inhibitor, in comparison to the reaction velocity in the absence of an inhibitor. For that purpose, the specific fluorogenic substrates Z-Arg-Arg-7-amido-4-methylcoumarin (Z-Arg-Arg-AMC) and 2-aminobenzoyl (Abz)-Gly-Ile-Val-Arg-Ala-Lys-(Dnp)-OH were used for cathepsin B endopeptidase and exopeptidase activities, respectively, and Z-Phe-Arg-AMC was used for cathepsin L and V activities.
(§2) Human recombinant cathepsin B was expressed in E. coli, recombinant cathepsin V was expressed in Pichia pastoris, and human recombinant cathepsin L was expressed in E. coli, as reported. − For the determination of cathepsin B endopeptidase and exopeptidase activities, 100 mM phosphate buffer (pH 6.0) and 60 mM acetate buffer (pH 5.0) were used, respectively, and for the determination of cathepsin V and L activities, 100 mM acetate buffer (pH 5.5) was used. All buffers contained 0.1% PEG 8000 (Sigma-Aldrich, St. Louis, MO), 5 mM cysteine, and 1.5 mM EDTA. Prior to the assay, the enzymes were activated in the assay buffer for 5 min at 37 °C.
(§3) To determine the effect of inhibitors on enzyme activity, the following substrates were used: Z-Arg-Arg-AMC (final concentration 5 μM, Z-RR-AMC; Bachem, Bubendorf, Switzerland) for cathepsin B endopeptidase activity, Abz-Gly-Ile-Val-Arg-Ala-Lys-(Dnp)-OH (final concentration 1 μM, Abz-GIVRAK-(Dnp)-OH; Bachem) for cathepsin B exopeptidase activity, and Z-Phe-Arg-AMC (final concentration 2 μM, Z-FR-AMC; Bachem) for cathepsin V and L activity. The substrate ([…]) at a final concentration and inhibitor ([…]) at a concentration of 50 μM were added to the wells of a black microplate. The reaction was then initiated by adding 90 μL of activated enzyme (final concentrations: 5 nM cathepsin B for its endopeptidase activity, 0.5 nM cathepsin B for its exopeptidase activity, 2.5 ng/mL for cathepsin V, and 0.02 nM for cathepsin L) in the assay buffer. The formation of fluorescent degradation products during the reaction was continuously monitored at 460 ± 10 nm with excitation at 380 ± 20 nm for Z-Arg-Arg-AMC and Z-Phe-Arg-AMC and at 420 ± 10 nm with excitation at 320 ± 20 nm for Abz-Gly-Ile-Val-Arg-Ala-Lys(Dnp)-OH at 37 °C on a Tecan Infinite M1000 (Mannedorf, Switzerland) spectrofluorometer. All assay mixtures contained 5% (v/v) DMSO. To prevent false-positive inhibition due to the formation of compound aggregates, 0.01% Triton X-100 was used. All measurements were performed in triplicate and repeated twice. The relative inhibition was calculated using the following equation: relative inhibition (%) = 100(1 – v i/v o), where v i and v o designate the reaction velocities in the presence and absence of inhibitor, respectively.

[1] = pH 7.4, 25.0 °C
Description: The concentration of the compound was determined by UV–vis spectrophotometry. For calibration, stock solutions of the compound were used with known concentrations dissolved in 100% DMSO, 75% DMSO, and 50% (v/v) DMSO/buffered aqueous solutions.

[2] = target: T2, human serum albumin (HSA) (Homo sapiens, UniProt P02768); assay: Tryptophan (Trp214) fluorescence quenching assay with HSA; type: binding; conditions: 1 μM HSA
T2 construct: purchased Sigma-Aldrich/Merck A8763
T2 sequence (P02768 25-609): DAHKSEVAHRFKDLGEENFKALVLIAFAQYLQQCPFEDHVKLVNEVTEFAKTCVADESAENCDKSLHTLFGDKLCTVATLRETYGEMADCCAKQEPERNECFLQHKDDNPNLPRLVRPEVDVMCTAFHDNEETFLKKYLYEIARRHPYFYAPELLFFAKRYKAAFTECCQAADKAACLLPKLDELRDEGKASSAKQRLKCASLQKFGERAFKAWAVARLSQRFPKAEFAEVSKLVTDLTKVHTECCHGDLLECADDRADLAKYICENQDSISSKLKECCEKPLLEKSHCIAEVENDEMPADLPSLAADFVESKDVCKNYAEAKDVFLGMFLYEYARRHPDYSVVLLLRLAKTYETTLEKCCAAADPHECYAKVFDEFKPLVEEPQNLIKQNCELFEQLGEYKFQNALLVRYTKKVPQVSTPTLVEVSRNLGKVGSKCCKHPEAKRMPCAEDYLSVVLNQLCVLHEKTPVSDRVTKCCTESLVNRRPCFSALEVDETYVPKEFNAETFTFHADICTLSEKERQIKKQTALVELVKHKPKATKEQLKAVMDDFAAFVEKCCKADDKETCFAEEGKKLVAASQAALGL
Description: HSA contains only one tryptophan residue (Trp214), which is located in a hydrophobic pocket in subdomain IIA of the protein. When a compound binds to HSA, it can affect the local environment of Trp214, leading to a decrease in its fluorescence intensity.
Fluorescence measurements were carried out on a Fluoromax (Horiba Jobin Yvon, Longjumeau, France) spectrofluorometer using a 1 cm × 1 cm quartz cuvette. Samples contained 1 μM HSA and the complex concentration was varied between 0 and 18 μM. The measurements were carried out as titration. The excitation wavelength was 295 for the Trp214 quenching measurements, and the determined quenching constant for HSA–complex species (1:1) was obtained using the computer program HypSpec. Calculations always were based on data obtained from at least two independent measurements. Self-absorbance and inner filter effect had to be considered, and corrections were made as was described in our former works. ,

[3] = target: T3, cathepsin B (exopeptidase activity) (Homo sapiens, UniProt P07858); assay: Relative inhibition of cathepsin B exopeptidase activity; type: biochemical; conditions: 50 μM; substrate Abz-Gly-Ile-Val-Arg-Ala-Lys-(Dnp)-OH; pH 5.0
T3 construct: made in house; host or cells: E. coli
Excerpt: as §1, §2, §3

[4] = target: T2, human serum albumin (HSA); assay: Membrane ultrafiltration with HSA; type: binding; conditions: 1:2 protein-to-complex ratio (25 μM HSA, 50 μM complex), pH 7.4
Description: To characterize the binding strength of the complex to HSA, the UV–vis spectrum of the complex was recorded in the presence of different amounts of the protein (Figure ). The gradual spectral changes leveled off at about 0.5 equiv of the protein, indicating at least two binding sites. However, from these spectral changes, no formation constants could be calculated due to the overlapping processes.
Milli-pore, Amicon Ultra-0.5 membrane filters (10 kDa) were used to separate samples containing 25 μM HSA and 50 μM complex (1:2 biomolecule-to-complex ratio) into low and high molecular mass (LMM and HMM) fractions as described in our former work. UV–vis spectrophotometry was used to determine the concentration of the nonbound compounds in the LMM fractions by comparing to a reference sample without the protein.

T1 sequence (P07711 114-333): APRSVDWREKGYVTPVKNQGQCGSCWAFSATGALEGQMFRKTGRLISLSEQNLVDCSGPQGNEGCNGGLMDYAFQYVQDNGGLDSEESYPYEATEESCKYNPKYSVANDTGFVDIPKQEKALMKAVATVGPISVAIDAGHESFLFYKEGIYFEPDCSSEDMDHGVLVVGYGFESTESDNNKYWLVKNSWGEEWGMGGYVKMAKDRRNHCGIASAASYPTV

N#Cc1ccccc1.[C-]#[O+].[C-]#[O+].[C-]#[O+].[O-]n1ccccc1=S.[Re+] [complex 4, fac-[Re(CO)3(pth)(benzonitrile)]]
relative inhibition cathepsin L (cathepsin L): 5.0 ± 4.8%
aqueous solubility S7.4 [1]: 350 ± 10 µM
log KQ quenching constant ([2]; 0–18 μM complex, pH 7.4 (PBS), 25 °C): 6.3 ± 0.1
degree of HSA fluorescence quenching ([2]; ∼4 equivalents of complex, λEX 295 nm, pH 7.4): ~85%
relative inhibition cathepsin B exopeptidase [3]: 37.5 ± 2.1%
unbound complex in low molecular mass fraction [4]: ~10%
